# PubChem BioAssay (NCI)
#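 Compound exposure: 48 hours, 5 concentrations, 96-well plates. TGI denotes the concentration required for complete inhibition of growth.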
# Tests used:
# Test in all cases: NCI tumour cell line growth inhibition, 48 h
# 786-0 renal = tested on: 786-0 renal
# A498 renal = tested on: A498 renal
# A549 NSCLC = tested on: A549 NSCLC
# ACHN renal = tested on: ACHN renal
# BT-549 breast = tested on: BT-549 breast
# CAKI-1 renal = tested on: CAKI-1 renal
# COLO 205 colon = tested on: COLO 205 colon
# DU-145 prostate = tested on: DU-145 prostate
# EKVX NSCLC = tested on: EKVX NSCLC
# HCC-2998 colon = tested on: HCC-2998 colon
# HCT-116 colon = tested on: HCT-116 colon
# HCT-15 colon = tested on: HCT-15 colon
# HL-60(TB) leukemia = tested on: HL-60(TB) leukemia
# HOP-92 NSCLC = tested on: HOP-92 NSCLC
# HS 578T breast = tested on: HS 578T breast
# HT29 colon = tested on: HT29 colon
# IGROV1 ovarian = tested on: IGROV1 ovarian
# K-562 leukemia = tested on: K-562 leukemia
# KM12 colon = tested on: KM12 colon
# LOX IMVI melanoma = tested on: LOX IMVI melanoma
# M14 melanoma = tested on: M14 melanoma
# MALME-3M melanoma = tested on: MALME-3M melanoma
# MCF7 breast = tested on: MCF7 breast
# MDA-MB-231 breast = tested on: MDA-MB-231 breast
# MDA-MB-435 = tested on: MDA-MB-435
# MDA-N = tested on: MDA-N
# MOLT-4 leukemia = tested on: MOLT-4 leukemia
# NCI-H226 lung = tested on: NCI-H226 lung
# NCI-H23 lung = tested on: NCI-H23 lung
# NCI-H522 lung = tested on: NCI-H522 lung
# NCI/ADR-RES ovarian = tested on: NCI/ADR-RES ovarian
# OVCAR-4 ovarian = tested on: OVCAR-4 ovarian
# OVCAR-5 ovarian = tested on: OVCAR-5 ovarian
# OVCAR-8 ovarian = tested on: OVCAR-8 ovarian
# PC-3 prostate = tested on: PC-3 prostate
# RPMI-8226 leukemia = tested on: RPMI-8226 leukemia
# SF-268 CNS = tested on: SF-268 CNS
# SF-539 CNS = tested on: SF-539 CNS
# SK-MEL-2 melanoma = tested on: SK-MEL-2 melanoma
# SK-MEL-28 melanoma = tested on: SK-MEL-28 melanoma
# SK-MEL-5 melanoma = tested on: SK-MEL-5 melanoma
# SK-OV-3 ovarian = tested on: SK-OV-3 ovarian
# SNB-19 CNS = tested on: SNB-19 CNS
# SNB-75 CNS = tested on: SNB-75 CNS
# SR leukemia = tested on: SR leukemia
# SW-620 colon = tested on: SW-620 colon
# TK-10 renal = tested on: TK-10 renal
# U251 CNS = tested on: U251 CNS
# UACC-257 melanoma = tested on: UACC-257 melanoma
# UACC-62 melanoma = tested on: UACC-62 melanoma
# UO-31 renal = tested on: UO-31 renal
smiles,measurement,setting,value
COC(=O)c1ccc(NCC2=CC(=O)C=CC2=O)cc1,TGI,786-0 renal,7.86 µM
same,TGI,A498 renal,27.6 µM
same,TGI,A549 NSCLC,41.8 µM
same,TGI,ACHN renal,27 µM
same,TGI,BT-549 breast,27 µM
same,TGI,CAKI-1 renal,7.68 µM
same,TGI,COLO 205 colon,8.67 µM
same,TGI,DU-145 prostate,28.8 µM
same,TGI,EKVX NSCLC,28.2 µM
same,TGI,HCC-2998 colon,38.8 µM
same,TGI,HCT-116 colon,30.4 µM
same,TGI,HCT-15 colon,25.9 µM
same,TGI,HL-60(TB) leukemia,5.5 µM
same,TGI,HOP-92 NSCLC,10.5 µM
same,TGI,HS 578T breast,> 100 µM
same,TGI,HT29 colon,38.8 µM
same,TGI,IGROV1 ovarian,34.1 µM
same,TGI,K-562 leukemia,6.95 µM
same,TGI,KM12 colon,28.6 µM
same,TGI,LOX IMVI melanoma,17.8 µM
same,TGI,M14 melanoma,15.8 µM
same,TGI,MALME-3M melanoma,13.9 µM
same,TGI,MCF7 breast,30.8 µM
same,TGI,MDA-MB-231 breast,30.7 µM
same,TGI,MDA-MB-435,24.3 µM
same,TGI,MDA-N,24.2 µM
same,TGI,MOLT-4 leukemia,9.58 µM
same,TGI,NCI-H226 lung,37.2 µM
same,TGI,NCI-H23 lung,29.8 µM
same,TGI,NCI-H522 lung,3.11 µM
same,TGI,NCI/ADR-RES ovarian,35.5 µM
same,TGI,OVCAR-4 ovarian,26.5 µM
same,TGI,OVCAR-5 ovarian,32.3 µM
same,TGI,OVCAR-8 ovarian,39.9 µM
same,TGI,PC-3 prostate,37 µM
same,TGI,RPMI-8226 leukemia,7.22 µM
same,TGI,SF-268 CNS,28.8 µM
same,TGI,SF-539 CNS,24.5 µM
same,TGI,SK-MEL-2 melanoma,37.4 µM
same,TGI,SK-MEL-28 melanoma,30.2 µM
same,TGI,SK-MEL-5 melanoma,32.5 µM
same,TGI,SK-OV-3 ovarian,30.3 µM
same,TGI,SNB-19 CNS,28.2 µM
same,TGI,SNB-75 CNS,30.3 µM
same,TGI,SR leukemia,61 µM
same,TGI,SW-620 colon,25.9 µM
same,TGI,TK-10 renal,22.7 µM
same,TGI,U251 CNS,28.7 µM
same,TGI,UACC-257 melanoma,25.7 µM
same,TGI,UACC-62 melanoma,29 µM
same,TGI,UO-31 renal,19.5 µM
